Assay results published in the NIST ThermoML archive (doi:10.1021/je0503251).

Settings: Liquid, Closed cell (Static) method

FC(F)CC(F)(F)F [1,1,1,3,3-pentafluoropropane]
Settings | vapor or sublimation pressure [kPa]
253.12 K | 19.34
258.16 K | 25.37
263.13 K | 32.79
268.12 K | 41.88
273.12 K | 52.91
278.12 K | 66.17
283.15 K | 82.07
285.14 K | 89.11
288.12 K | 100.56
293.09 K | 122.2
295.08 K | 131.93
298.06 K | 147.46
303.06 K | 177.01
305.05 K | 190.2
308.05 K | 210.95
310.09 K | 225.91
313.1 K | 249.94
315.08 K | 266.8
318.12 K | 294.26
320.17 K | 312.44
323.16 K | 343.03
325.16 K | 364.63
328.16 K | 398.98
330.16 K | 423.22
333.16 K | 461.65
338.16 K | 531.78
343.16 K | 609.29
345.16 K | 642.58
348.16 K | 695.02
353.16 K | 789.45
358.16 K | 893.28
363.16 K | 1007
368.13 K | 1130.3
373.13 K | 1265.7
378.16 K | 1413.6
383.15 K | 1573.3
388.14 K | 1745.4
393.14 K | 1932.2
398.12 K | 2133.2
403.07 K | 2348.2

COCOC [dimethoxymethane]
Settings | vapor or sublimation pressure [kPa]
283.13 K | 27.73
285.13 K | 30.39
288.11 K | 34.73
293.07 K | 43.08
295.07 K | 46.83
298.07 K | 52.94
300.07 K | 57.14
303.05 K | 64.26
305.05 K | 69.42
308.05 K | 77.74
310.07 K | 83.8
313.16 K | 93.85
318.13 K | 111.95
323.17 K | 132.98
325.18 K | 142.06
328.17 K | 156.44
330.17 K | 166.67
333.17 K | 182.96
335.17 K | 194.47
338.16 K | 212.79
340.16 K | 225.73
343.16 K | 246.24
345.16 K | 260.68
348.16 K | 283.65
353.16 K | 325.16
358.16 K | 371.53
363.16 K | 421.82
368.16 K | 477.61
373.15 K | 538.51
378.16 K | 605.33
383.13 K | 677.68
388.15 K | 757.05
393.16 K | 842.82
398.15 K | 935.48
